Source: PubChem BioAssay AID588600 (Sanford-Burnham Center for Chemical Genomics, 2011)

Target: Sentrin-specific protease 7 (Homo sapiens) (UniProt Q9BQF6)
Test: inhibition of human SENP7 cleavage activity – biochemical, luminescence, set 2, SAR follow-up (AID 588600)
Conditions: recombinant SENP7, Z-RLRGG-aminoluciferin, 40 min

Sentrin-specific protease 7 (Homo sapiens), sequence (Q9BQF6 706-1050 limits assumed): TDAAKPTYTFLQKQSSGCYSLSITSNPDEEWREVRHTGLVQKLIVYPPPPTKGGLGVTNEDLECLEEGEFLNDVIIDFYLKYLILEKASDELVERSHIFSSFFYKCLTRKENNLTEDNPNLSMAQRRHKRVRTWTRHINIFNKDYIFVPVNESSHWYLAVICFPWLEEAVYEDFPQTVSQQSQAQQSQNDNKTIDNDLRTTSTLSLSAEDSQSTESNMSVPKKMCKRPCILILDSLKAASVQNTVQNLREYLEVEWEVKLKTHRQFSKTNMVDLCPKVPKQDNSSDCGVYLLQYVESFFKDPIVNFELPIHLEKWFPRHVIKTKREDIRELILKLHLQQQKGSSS

IC50 | Compound
1.65 µM | CN(C)c1ccc(/C=C/c2noc(-c3ccccc3O)n2)cc1
2.08 µM | COc1ccccc1OCc1nc(-c2ccccc2Cl)no1
